# According to paper PMC11876601 (Molecular Systems Biology, 2025):
# Where two headings read alike, the source gives them in different places.
# Columns and labels:
# Experiment in all cases: cells
# HPDE = tested on: HPDE; parameters: Viability of PDAC cell lines, ATPlite luminescence, 11-dose single-agent curve fit; conditions: HPDE, 72 h, read-out: EC50 [nM]
# How it was run: (§1)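 cells (1000 to 5000 per well) seeded 24 h before drug addition in a screen at 0.2% final DMSO. Controls were drug-free wells (negative) and 5 µM staurosporine (positive).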
# MiaPaCa-2 [1] = tested on: MiaPaCa-2; parameters: Viability of PDAC cell lines, ATPlite luminescence, 11-dose single-agent curve fit; conditions: Homo sapiens, MIA PaCa-2, 72 h, read-out: EC50 [nM]
# How it was run: as §1
# HuP-T4 = tested on: HuP-T4; parameters: Viability of PDAC cell lines, ATPlite luminescence, 11-dose single-agent curve fit; conditions: Homo sapiens, HuP-T4, 72 h, read-out: EC50 [nM]
# How it was run: as §1
# PANC-1 = tested on: PANC-1; parameters: Viability of PDAC cell lines, ATPlite luminescence, 11-dose single-agent curve fit; conditions: Homo sapiens, PANC-1, 72 h, read-out: EC50 [nM]
# How it was run: as §1
# Colo-357 = tested on: Colo-357; parameters: Viability of PDAC cell lines, ATPlite luminescence, 11-dose single-agent curve fit; conditions: Homo sapiens, COLO357, 72 h, read-out: EC50 [nM]
# How it was run: as §1
# PaTu-8988-T [2] = tested on: PaTu-8988-T; parameters: Viability of PDAC cell lines, ATPlite luminescence, 11-dose single-agent curve fit; conditions: Homo sapiens, PaTu 8988t, 72 h, read-out: EC50 [nM]
# How it was run: as §1
# Dan-G [3] = tested on: Dan-G; parameters: Viability of PDAC cell lines, ATPlite luminescence, 11-dose single-agent curve fit; conditions: 72 h, read-out: EC50 [nM]
# How it was run: as §1
# AsPC-1 = tested on: AsPC-1; parameters: Viability of PDAC cell lines, ATPlite luminescence, 11-dose single-agent curve fit; conditions: Homo sapiens, ASPC1, 72 h, read-out: EC50 [nM]
# How it was run: as §1
# Capan-1 = tested on: Capan-1; parameters: Viability of PDAC cell lines, ATPlite luminescence, 11-dose single-agent curve fit; conditions: Homo sapiens, CAPAN-1, 72 h, read-out: EC50 [nM]
# How it was run: as §1
# Suit2-07 [4] = tested on: Suit2-07; parameters: ATPlite luminescence viability of PDAC cell lines, 11-dose single-agent curves, 4-parameter fit; conditions: 72 h, read-out: EC50 [nM]
# Protocol: (§2) Afterward, small amounts were transferred to 384-well intermediate plates (Greiner Bio-One GmbH, Germany). […] For drug combination screening, 1000 to 5000 cells were seeded into 384-well plates (CulturPlate™, Perkin Elmer, MA, USA) using a Multidrop™ Combi Reagent Dispenser (Thermo Scientific, MA, USA) in 50 µl medium per well 24 h prior to drug treatment (seeding densities see Appendix Table S1). […] The final DMSO concentration in each well was 0.2%. […] Eight wells per plate without library drug served as negative controls, and sixteen wells per plate containing 5 µM Staurosporine served as positive controls. […] Next, we analyzed the drug sensitivity of immortalized duct cell line HPDE to detect effects unrelated to pancreatic cancer.
# PSN-1 [5] = tested on: PSN-1; parameters: ATPlite luminescence viability of PDAC cell lines, 11-dose single-agent curves, 4-parameter fit; conditions: Homo sapiens, PSN1, 72 h, read-out: EC50 [nM]
# Protocol: as §2
# FAMPAC [6] = tested on: FAMPAC; parameters: ATPlite luminescence viability of PDAC cell lines, 11-dose single-agent curves, 4-parameter fit; conditions: 72 h, read-out: EC50 [nM]
# Protocol: as §2
# BxPC-3 [7] = tested on: BxPC-3; parameters: ATPlite luminescence viability of PDAC cell lines, 11-dose single-agent curves, 4-parameter fit; conditions: Homo sapiens, BXPC-3, 72 h, read-out: EC50 [nM]
# Protocol: as §2
# Suit2-07 [8] = tested on: Suit2-07; parameters: Viability of PDAC cell lines, ATPlite luminescence, 11-dose single-agent curve fit; conditions: 72 h, read-out: EC50 [nM]
# How it was run: as §1
# PSN-1 [9] = tested on: PSN-1; parameters: Viability of PDAC cell lines, ATPlite luminescence, 11-dose single-agent curve fit; conditions: Homo sapiens, PSN1, 72 h, read-out: EC50 [nM]
# How it was run: as §1
# BxPC-3 [10] = tested on: BxPC-3; parameters: Viability of PDAC cell lines, ATPlite luminescence, 11-dose single-agent curve fit; conditions: Homo sapiens, BXPC-3, 72 h, read-out: EC50 [nM]
# How it was run: as §1
# Dan-G [11] = tested on: Dan-G; parameters: ATPlite luminescence viability of PDAC cell lines, 11-dose single-agent curves, 4-parameter fit; conditions: 72 h, read-out: EC50 [nM]
# Protocol: as §2
# FAMPAC [12] = tested on: FAMPAC; parameters: Viability of PDAC cell lines, ATPlite luminescence, 11-dose single-agent curve fit; conditions: 72 h, read-out: EC50 [nM]
# How it was run: as §1
# MiaPaCa-2 [13] = tested on: MiaPaCa-2; parameters: ATPlite luminescence viability of PDAC cell lines, 11-dose single-agent curves, 4-parameter fit; conditions: Homo sapiens, MIA PaCa-2, 72 h, read-out: EC50 [nM]
# Protocol: as §2
# PaTu-8988-T [14] = tested on: PaTu-8988-T; parameters: ATPlite luminescence viability of PDAC cell lines, 11-dose single-agent curves, 4-parameter fit; conditions: Homo sapiens, PaTu 8988t, 72 h, read-out: EC50 [nM]
# Protocol: as §2
SMILES,EC50 (HPDE) [nM],EC50 (MiaPaCa-2 [1]) [nM],EC50 (HuP-T4) [nM],EC50 (PANC-1) [nM],EC50 (Colo-357) [nM],EC50 (PaTu-8988-T [2]) [nM],EC50 (Dan-G [3]) [nM],EC50 (AsPC-1) [nM],EC50 (Capan-1) [nM],EC50 (Suit2-07 [4]) [nM],EC50 (PSN-1 [5]) [nM],EC50 (FAMPAC [6]) [nM],EC50 (BxPC-3 [7]) [nM],EC50 (Suit2-07 [8]) [nM],EC50 (PSN-1 [9]) [nM],EC50 (BxPC-3 [10]) [nM],EC50 (Dan-G [11]) [nM],EC50 (FAMPAC [12]) [nM],EC50 (MiaPaCa-2 [13]) [nM],EC50 (PaTu-8988-T [14]) [nM]
CC(C)(C)c1nc(-c2cccc(NS(=O)(=O)c3c(F)cccc3F)c2F)c(-c2ccnc(N)n2)s1 [Dabrafenib],197,971,1830,5600,9480,749,274,975,50.5,883,341,428,348,,,,,,,
O=C(c1cc(Cc2n[nH]c(=O)c3ccccc23)ccc1F)N1CCN(C(=O)C2CC2)CC1 [Olaparib],1490,5000,3200,> 10000,7820,1870,,446,> 10000,,,8230,,9600,> 10000,3550,3940,,,
COc1cc2nccc(Oc3ccc(NC(=O)C4(C(=O)Nc5ccc(F)cc5)CC4)cc3)c2cc1OC [Cabozantinib],> 10000,,3810,3550,4380,,,> 10000,6600,,,,,> 10000,> 10000,> 10000,> 10000,> 10000,> 10000,4020
Cn1cc(C2=C(c3cn(C4CCN(Cc5ccccn5)CC4)c4ccccc34)C(=O)NC2=O)c2ccccc21 [Enzastaurin],9200,> 10000,2270,4980,109,5780,873,7970,401,,> 10000,,,> 10000,,> 10000,,> 10000,,
Cc1cc(C)c(/C=C2\C(=O)Nc3ccccc32)[nH]1 [Semaxanib],> 10000,> 10000,42.4,66.8,317,815,169,3330,5010,,,,,2320,127,5.83,,43.5,,
CCCS(=O)(=O)Nc1ccc(F)c(C(=O)c2c[nH]c3ncc(-c4ccc(Cl)cc4)cc23)c1F [Vemurafenib],> 10000,> 10000,> 10000,6.65,5000,708,> 10000,869,> 10000,,,,,1590,> 10000,> 10000,,2990,,
O=c1sn(-c2cccc3ccccc23)c(=O)n1Cc1ccccc1 [Tideglusib],58,344,4540,> 10000,24.5,636,1490,66.8,51.8,,,,,9730,0.13,2600,,2070,,
N#CC1(c2ccc(NC(=O)c3cccnc3NCc3ccncc3)cc2)CCCC1 [Apatinib],7430,> 10000,283,2350,4280,> 10000,5380,452,> 10000,,,,,1420,> 10000,5230,,> 10000,,
Cc1[nH]c(/C=C2\C(=O)Nc3ccccc32)c(C)c1CCC(=O)O [Orantinib],61.9,47,2430,568,2.98,135,487,145,17.6,,,,,2.77,366,1040,,0.01,,
CC[C@@H]1CN(C(=O)NCC(F)(F)F)C[C@@H]1c1cnc2cnc3[nH]ccc3n12 [Upadacitinib],26.9,1590,973,215,1.06,> 10000,309,137,0.18,,,,,6.77,7050,704,,49,,
O=S(=O)(c1cccc2cnccc12)N1CCCNCC1 [Fasudil],> 10000,3390,609,5330,6850,1140,2960,2.85,> 10000,,,,,2790,0.04,805,,> 10000,,
